The values below come from patent publication US20240116921A1, “LACTAM (HETERO)[…] DERIVATIVES AS INHIBITORS OF ERBB2” (EnLiven Therapeutics, Inc., priority 2020, published 2024).

The target of assay [1] is Ba/F3 ERBB2 A775_G776insYVMA (Homo sapiens, UniProt P04626, DUP772-775, cells depend on it). As to the kind of experiment: Cell viability assay, Ba/F3 ERBB2 A775_G776insYVMA. The format is cell-based, mouse. Particulars: Ba/F3 ERBB2 YVMA cells, cell viability, 72 hours, CellTiter Glo; Table B5; read-out: Ba/F3 ERBB2 YVMA, IC50. The procedure: Cells were treated with compounds, and cell viability was measured as a metric of kinase inhibition.
The Ba/F3 cell line is IL-3-dependent mouse cell line derived from the C3H mouse strain. Ba/F3 cell lines were engineered to express human ERBB2 or EGFR kinases, rendering the cells IL-3 independent. The lines were generated via retroviral transduction utilizing a Moloney murine leukemia virus (MMLV) promoter, and constructs are stably integrated into the cell genome. The sequences of the ERBB2 and EGFR genes used were NCBI Reference Sequences NM_004448.3 and NM_005228.3, respectively.
Similarly, Ba/F3 cell lines engineered to express EGFR, ERBB2, or ERBB2 mutants were grown, harvested, counted and seeded at 3000 cells per well in 96-well plates. A subset of wells contained media only (low control, “LC”).
Table B1 provides the growth media and number of cells seeded per well for the each cell line.
Plates were placed in a 37° C., 5% CO2 incubator for 72 hours. Plates were then removed from the incubator and equilibrated for 15 minutes at room temperature. 40 μl of CellTiter Glo reagent (Promega) was added to measure the relative level of metabolically active cells by quantifying intracellular ATP concentrations. Plates were incubated for 30 minutes at room temperature, and luminescence was measured. […] Graphical curves were fitted using a nonlinear regression model with a sigmoidal dose response.

Assay [2] deals with T1, phosphorylated ERBB2 (pERBB2) (Homo sapiens, UniProt P04626).
T1 construct: endogenous in cells; host or cells: BT-474
As to the kind of experiment: Detection of phosphorylated ERBB2 (pERBB2) by ELISA in BT-474 cells. The conditions noted are these: four hours incubation. Format: cell-based. The method, then:
BT-474 cells were seeded into a 96-well at 2.0*10^4 cells/100 μl/well.
Compounds were dissolved and serially diluted in DMSO. The compounds were then were added, mixed, and incubated for four hours at 37° C., 5% CO2. Compounds were added using four-fold dilutions at final concentrations ranging from 10 μM to 0.01 nM.
Following the four hour incubation with compounds, cell lysates were prepared.
Plates were centrifuged for 5 min at 3000 RPM, and supernatant was removed from each well. Cells were washed 3 times by resuspension in 150 μl PBS, followed by centrifugation and removal of the supernatant, as above. […] Cells were incubated with lysis buffer for 1 hour at 4° C., and then stored at −80° C.
Enzyme-linked immunosorbent assays (ELISA) were performed to measure phosphorylated ERBB2 levels. […] The next day, plates were washed with PBS+0.05% Tween20 (PBST). 150 μl of 5% BSA blocking solution was added for 1 hour at room temperature, with shaking. Plates were washed with PBST. Cell lysates were thawed and 100 μl of lysate was added to the ELISA plate. The plates were incubated for 2 hours at room temperature, with shaking. […] Plates were incubated for 1 hour at room temperature, with shaking. Plates were then washed with PBST, and 100 μl TMB substrate solution (R&D Systems, cat #DY999) was added. Plate were incubated in the dark for 20 minutes at room temperature. 50 μl of Stop solution (R&D Systems, cat #DY994) (50 μl) was added to each well and mixed.
Optical density at 450 nm was read on an EnSpire plate reader (Perkin Elmer). The remaining kinase activity by calculated using the following formula: % Relative activity=100×(A450sample−A450LC)/(A450HC−A450LC). The low and high control values (“LC” and “HC”) were generated from lysate from wells without cells or with cells treated with 0.1% DMSO, respectively.

Assay [3] addresses T2, phosphorylated EGFR (pEGFR) (Homo sapiens, UniProt P00533).
T2 construct: performed to measure phosphorylated EGFR levels using A431 cells (10% FBS); endogenous in cells; host or cells: A431
Nature of the assay: Detection of phosphorylated EGFR (pEGFR) in EGF-stimulated A431 cells. The format is cell-based. The conditions noted are these: A431 cells (10% FBS), 4 hours incubation, EGF 30 ng/mL 10 minutes, AlphaLISA. The procedure:
Enzyme-linked immunosorbent assays (ELISA) were performed to measure phosphorylated EGFR levels using A431 cells (10% FBS). A431 (1.0*10^4 cells/40 μl/well) cells were seeded in 384 well. Compounds were dissolved in DMSO, serially diluted in DMSO and then were added, mixed, and incubated for 4 hours at 37° C., 5% CO2. Following the 4-hours incubation, cells were stimulated for 10 minutes with EGF (Invitrogen, cat #PHG0311) at a final concentration of 30 ng/mL in the incubator. The media was aspirated and cells were lysed in 10 μL lysis buffer with protease and phosphatase inhibitors (PerkinElmer, cat #ALSU-PEGFR-A50K). The plates were placed on a shaker for 5 minutes and then incubated for 30 min at 4° C. for complete lysis. The lysate was transferred to an Optiplate (Perkin Elmer, cat #6007290).
Acceptor mix (PerkinElmer, cat #ALSU-PEGFR-A50K) was prepared just before use and 5 μL was dispensed to all the wells, followed by a 1.5-2 h incubation at room temperature in dark. The donor mix (PerkinElmer, cat #ALSU-PEGFR-A50K) was prepared under low light conditions prior to use and […] of donor mix was added to all the wells under subdued lighting or green filters. The plates were placed on a shaker for 5 min, sealed, and incubated overnight at room temperature in dark. Plates were read on the Envision (PerkinElmer) using standard AlphaLISA settings.
The percentage of inhibition on EGFR phosphorylation was calculated following equation: % Inhibition=100×(LumHC−LumSample)/(LumHC−LumLC). The low and high controls (LC/HC) are generated from lysate from wells with cells treated with DMSO or […] Staurosporine (BioAustralis, cat #BIA-S1086), […]. IC50 values were calculated by fitting the Curve using XLfit (v5.3.1.3), equation 201: Y=Bottom+(Top−Bottom)/(1+10^((Log IC50−X)*HillSlope)).

T1 sequence (P04626 23-1255): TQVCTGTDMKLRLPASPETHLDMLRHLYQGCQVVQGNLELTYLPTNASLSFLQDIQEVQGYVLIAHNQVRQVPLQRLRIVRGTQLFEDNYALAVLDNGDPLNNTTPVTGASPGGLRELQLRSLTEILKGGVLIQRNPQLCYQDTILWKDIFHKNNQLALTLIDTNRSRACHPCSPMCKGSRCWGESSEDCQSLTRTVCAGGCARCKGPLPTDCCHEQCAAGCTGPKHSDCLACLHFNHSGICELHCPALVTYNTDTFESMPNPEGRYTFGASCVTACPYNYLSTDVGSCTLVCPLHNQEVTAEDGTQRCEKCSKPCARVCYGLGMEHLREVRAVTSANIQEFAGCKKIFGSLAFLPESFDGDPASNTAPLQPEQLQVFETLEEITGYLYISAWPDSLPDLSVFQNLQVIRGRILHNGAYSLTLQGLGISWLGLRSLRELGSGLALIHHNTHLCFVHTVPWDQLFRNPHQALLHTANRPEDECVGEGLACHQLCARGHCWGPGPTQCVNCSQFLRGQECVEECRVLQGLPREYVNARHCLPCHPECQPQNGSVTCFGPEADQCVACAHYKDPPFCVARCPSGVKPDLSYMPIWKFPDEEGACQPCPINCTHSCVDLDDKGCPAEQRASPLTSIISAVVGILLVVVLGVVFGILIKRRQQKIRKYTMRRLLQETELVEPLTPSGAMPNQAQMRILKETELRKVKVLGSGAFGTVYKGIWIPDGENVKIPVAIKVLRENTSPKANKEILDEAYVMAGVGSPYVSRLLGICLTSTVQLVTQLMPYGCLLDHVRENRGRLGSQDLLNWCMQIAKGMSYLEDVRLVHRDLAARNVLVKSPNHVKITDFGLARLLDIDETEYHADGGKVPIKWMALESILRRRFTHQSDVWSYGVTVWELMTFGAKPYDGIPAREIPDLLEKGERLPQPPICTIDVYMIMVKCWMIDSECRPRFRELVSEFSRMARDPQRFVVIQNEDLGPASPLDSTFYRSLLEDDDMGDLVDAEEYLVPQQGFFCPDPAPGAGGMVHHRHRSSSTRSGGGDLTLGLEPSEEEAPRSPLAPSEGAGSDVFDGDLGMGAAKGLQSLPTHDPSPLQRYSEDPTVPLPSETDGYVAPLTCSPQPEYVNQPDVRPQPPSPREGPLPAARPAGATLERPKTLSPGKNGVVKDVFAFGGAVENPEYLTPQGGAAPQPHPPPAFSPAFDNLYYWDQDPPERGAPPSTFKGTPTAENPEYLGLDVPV
T2 sequence (P00533 25-1210): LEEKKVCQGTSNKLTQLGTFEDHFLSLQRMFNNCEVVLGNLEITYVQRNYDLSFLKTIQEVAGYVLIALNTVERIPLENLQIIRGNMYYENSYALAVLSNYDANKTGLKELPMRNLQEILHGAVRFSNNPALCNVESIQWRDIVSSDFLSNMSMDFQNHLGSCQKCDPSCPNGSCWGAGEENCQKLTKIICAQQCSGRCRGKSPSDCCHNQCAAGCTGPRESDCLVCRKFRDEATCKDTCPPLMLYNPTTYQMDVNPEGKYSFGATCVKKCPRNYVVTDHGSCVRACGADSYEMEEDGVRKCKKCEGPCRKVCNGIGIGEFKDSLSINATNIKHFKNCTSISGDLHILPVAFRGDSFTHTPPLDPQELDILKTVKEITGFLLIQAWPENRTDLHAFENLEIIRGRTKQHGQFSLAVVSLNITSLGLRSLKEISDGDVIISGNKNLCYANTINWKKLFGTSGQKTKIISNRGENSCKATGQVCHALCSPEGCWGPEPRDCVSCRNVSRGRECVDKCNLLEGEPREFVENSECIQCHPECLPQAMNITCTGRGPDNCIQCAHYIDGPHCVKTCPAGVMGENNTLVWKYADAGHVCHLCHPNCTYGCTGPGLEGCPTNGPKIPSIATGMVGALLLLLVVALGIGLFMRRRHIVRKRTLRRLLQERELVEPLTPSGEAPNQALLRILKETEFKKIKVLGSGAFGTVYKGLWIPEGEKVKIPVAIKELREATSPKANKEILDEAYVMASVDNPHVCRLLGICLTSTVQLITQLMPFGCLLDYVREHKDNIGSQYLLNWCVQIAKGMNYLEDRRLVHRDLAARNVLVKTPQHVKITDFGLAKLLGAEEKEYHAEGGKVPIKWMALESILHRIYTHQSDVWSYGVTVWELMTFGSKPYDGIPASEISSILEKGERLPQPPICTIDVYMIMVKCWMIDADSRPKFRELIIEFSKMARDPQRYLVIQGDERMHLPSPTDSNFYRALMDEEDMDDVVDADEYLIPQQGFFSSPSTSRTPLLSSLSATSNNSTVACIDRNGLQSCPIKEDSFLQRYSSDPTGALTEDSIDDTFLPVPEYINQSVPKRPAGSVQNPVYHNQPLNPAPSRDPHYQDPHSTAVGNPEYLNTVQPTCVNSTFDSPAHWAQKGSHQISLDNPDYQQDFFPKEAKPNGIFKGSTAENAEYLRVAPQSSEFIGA
Chain of Ba/F3 ERBB2 A775_G776insYVMA (P04626 with tags, fused parts or gaps DUP772-775): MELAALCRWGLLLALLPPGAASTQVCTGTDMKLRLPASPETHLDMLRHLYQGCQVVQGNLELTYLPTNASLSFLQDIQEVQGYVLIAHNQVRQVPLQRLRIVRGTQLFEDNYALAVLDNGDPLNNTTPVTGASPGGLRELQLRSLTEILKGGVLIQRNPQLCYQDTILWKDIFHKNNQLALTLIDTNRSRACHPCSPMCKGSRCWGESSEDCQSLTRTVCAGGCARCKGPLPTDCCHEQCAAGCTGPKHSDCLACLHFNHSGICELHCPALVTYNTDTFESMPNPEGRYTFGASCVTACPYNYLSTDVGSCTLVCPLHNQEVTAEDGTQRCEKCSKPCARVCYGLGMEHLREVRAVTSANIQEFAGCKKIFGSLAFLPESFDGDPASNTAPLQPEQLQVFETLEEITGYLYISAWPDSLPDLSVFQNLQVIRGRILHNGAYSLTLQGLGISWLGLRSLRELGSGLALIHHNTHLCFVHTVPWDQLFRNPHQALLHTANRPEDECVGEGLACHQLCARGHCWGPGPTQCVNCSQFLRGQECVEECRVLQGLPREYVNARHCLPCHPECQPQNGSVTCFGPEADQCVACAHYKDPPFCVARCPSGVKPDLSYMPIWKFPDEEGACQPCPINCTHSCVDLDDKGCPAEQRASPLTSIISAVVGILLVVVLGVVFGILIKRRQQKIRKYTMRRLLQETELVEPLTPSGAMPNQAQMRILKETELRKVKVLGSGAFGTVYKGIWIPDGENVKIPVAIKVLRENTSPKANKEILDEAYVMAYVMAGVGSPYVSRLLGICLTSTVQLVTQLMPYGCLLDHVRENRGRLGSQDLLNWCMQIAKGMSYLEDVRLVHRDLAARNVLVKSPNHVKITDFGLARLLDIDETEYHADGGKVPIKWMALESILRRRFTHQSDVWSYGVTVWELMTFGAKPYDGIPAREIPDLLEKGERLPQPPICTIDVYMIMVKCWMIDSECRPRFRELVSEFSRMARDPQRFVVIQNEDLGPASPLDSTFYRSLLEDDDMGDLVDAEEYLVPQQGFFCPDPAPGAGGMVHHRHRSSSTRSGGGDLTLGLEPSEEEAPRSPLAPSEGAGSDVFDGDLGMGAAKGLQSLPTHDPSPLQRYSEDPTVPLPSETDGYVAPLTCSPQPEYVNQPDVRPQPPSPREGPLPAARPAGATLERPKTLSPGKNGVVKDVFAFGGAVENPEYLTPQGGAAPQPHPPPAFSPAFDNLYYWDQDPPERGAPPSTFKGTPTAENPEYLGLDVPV

With `[2H]C([2H])([2H])N(C/C=C1\CCN(c2ccc3ncnc(Nc4ccc(Oc5ccc6c(c5)ncn6C([2H])([2H])[2H])c(C)c4)c3n2)C1=O)C([2H])([2H])[2H]` [Compound 106, (E)-3-(2-(bis(methyl-d3)amino)ethylidene)-1-(4-((3-methyl-4-((1-(methyl-d3)-1H-benzo[d]imidazol-5-yl)oxy)phenyl)amino)pyrido[3,2-d]pyrimidin-6-yl)pyrrolidin-2-one], the GI50 in assay [1] is 2.99 nM. Besides, the IC50 in assay [2] worked out at 28.2 nM; in assay [3] it was 1690 nM.

Consider `C=C1CCN(c2ccc3ncnc(Nc4ccc(Oc5ccc6c(c5)ncn6C)c(C)c4)c3n2)C1=O` [Compound 87, 1-(4-((3-methyl-4-((1-methyl-1H-benzo[d]imidazol-5-yl)oxy)phenyl)amino)pyrido[3,2-d]pyrimidin-6-yl)-3-methylenepyrrolidin-2-one; formic acid], for which the GI50 in assay [1] came to 23 nM. Moreover, the IC50 in assay [2] was found to be 87.2 nM; in assay [3], 8160 nM.

For `C=C1C(=O)N(c2ccc3ncnc(Nc4ccc(Oc5ccn6ncnc6c5)c(C)c4)c3c2)CC1CO` (centres unmarked) [Compound 29, 4-(hydroxymethyl)-1-{4-[(3-methyl-4-{[1,2,4]triazolo[1,5-a]pyridin-7-yloxy}phenyl)amino]quinazolin-6-yl}-3-methylidenepyrrolidin-2-one], the GI50 in assay [1] amounted to 31.5 nM. Further, the IC50 amounted to 5.86 nM in assay [2] and 405 nM in assay [3].

Consider `C=C1C(=O)N(c2ccc3ncnc(Nc4ccc(Oc5ccc6c(c5)ncn6C)c(C)c4)c3c2)C2CC12` (single isomer, unassigned) [Example S33, Enantiomer # 2, 2-[4-({3-methyl-4-[(1-methyl-1,3-benzodiazol-5-yl)oxy]phenyl}amino)quinazolin-6-yl]-4-methylidene-2-azabicyclo[3.1.0]hexan-3-one], for which the GI50 in assay [1] turned out to be 7.6 nM. The IC50 in assay [2] was found to be 24.9 nM; in assay [3], 520 nM.

Regarding `CNC/C=C1\CCN(c2ccc3ncnc(Nc4ccc(Oc5ccc6c(c5)ncn6C)c(C)c4)c3n2)C1=O` [Compound 100, (3E)-1-[4-({3-methyl-4-[(1-methyl-1,3-benzodiazol-5-yl)oxy]phenyl}amino)pyrido[3,2-d]pyrimidin-6-yl]-3-[2-(methylamino)ethylidene]pyrrolidin-2-one; formic acid], the GI50 in assay [1] is 3.19 nM. The results for the concentration for half-maximal inhibition (IC50) in assay [2] and in assay [3] were 57.7 nM and 157 nM, respectively.

In the case of `[2H]C([2H])([2H])n1nnc2cc(Oc3ccc(Nc4ncnc5ccc(N6CC/C(=C\CN(C)C)C6=O)nc45)cc3C)ccc21` [Compound 117, (E)-3-(2-(dimethylamino)ethylidene)-1-(4-((3-methyl-4-((1-(methyl-d3)-1H-benzo[d][1,2,3]triazol-5-yl)oxy)phenyl)amino)pyrido[3,2-d]pyrimidin-6-yl)pyrrolidin-2-one], in assay [1], the GI50 is 2 nM. In addition, the half-inhibitory concentration (IC50) in assay [2] was 19.2 nM; in assay [3], greater than 10000 nM.

In the case of `C=C1C(=O)N(c2cc3c(Nc4ccc(Oc5ccn6ncnc6c5)c(C)c4)ncnc3cn2)C[C@H]1C` [Compound 32, (4S)-4-methyl-1-{4-[(3-methyl-4-{[1,2,4]triazolo[1,5-a]pyridin-7-yloxy}phenyl)amino]pyrido[3,4-d]pyrimidin-6-yl}-3-methylidenepyrrolidin-2-one], the GI50 in assay [1] stood at 134 nM. Moreover, the IC50 in assay [2] came out at 72.1 nM; in assay [3] it was 8180 nM.

On to `Cc1cc(Nc2ncnc3ccc(N4CCC(=CCN(C)C)C4=O)cc23)ccc1Oc1ccn2ncnc2c1` (single isomer, unassigned) [Compound 17, (Z)-3-[2-(dimethylamino)ethylidene]-1-[4-[(3-methyl-4-[[1,2,4]triazolo[1,5-a]pyridin-7-yloxy]phenyl)amino]quinazolin-6-yl]pyrrolidin-2-one], for which the figures for the IC50 in assay [2] and in assay [3] were 19.7 nM and greater than 10000 nM, respectively.

In the case of `C=C1C(=O)N(c2ccc3ncnc(Nc4ccc(Oc5ccn6ncnc6c5)c(C)c4)c3c2)C2CC12` (single isomer, unassigned) [Example S21, Enantiomer # 1, 2-{4-[(3-methyl-4-{[1,2,4]triazolo[1,5-a]pyridin-7-yloxy}phenyl)amino]quinazolin-6-yl}-4-methylidene-2-azabicyclo[3.1.0]hexan-3-one], the figures for the IC50 in assay [2] and in assay [3] were 20.8 nM and 538 nM, respectively.

For the compound `C=C1C(=O)N(c2ccc3ncnc(Nc4ccc(Oc5ccn6ncnc6c5)c(C)c4)c3c2)C2CC12` (single isomer, unassigned) [Example S21, Enantiomer # 2, 2-{4-[(3-methyl-4-{[1,2,4]triazolo[1,5-a]pyridin-7-yloxy}phenyl)amino]quinazolin-6-yl}-4-methylidene-2-azabicyclo[3.1.0]hexan-3-one], the IC50 is 22.3 nM in assay [2] and 1980 nM in assay [3].

`C=C1C(=O)N(c2ccc3ncnc(Nc4ccc(Oc5ccn6ncnc6c5)c(C)c4)c3c2)C[C@@H]1C` [Compound 19, (R)-1-(4-((4-([1,2,4]triazolo[1,5-a]pyridin-7-yloxy)-3-methylphenyl)amino)quinazolin-6-yl)-4-methyl-3-methylenepyrrolidin-2-one]: the IC50 in assay [2] was 25.2 nM; in assay [3], 5630 nM.

For the compound `C=C1C(=O)N(c2ccc3ncnc(Nc4ccc(Oc5ccn6ncnc6c5)c(C)c4)c3c2)C[C@H]1C` [Compound 20, (S)-1-(4-(4-([1,2,4]triazolo[1,5-a]pyridin-7-yloxy)-3-methylphenylamino)quinazolin-6-yl)-4-methyl-3-methylenepyrrolidin-2-one], the IC50 in assay [2] is 12 nM; in assay [3], 586 nM.

Turning to `C=C1CCN(c2ccc3ncnc(Nc4ccc(Oc5ccn6ncnc6c5)c(C)c4)c3n2)C1=O` [Compound 23, 1-{4-[(3-methyl-4-{[1,2,4]triazolo[1,5-a]pyridin-7-yloxy}phenyl)amino]pyrido[3,2-d]pyrimidin-6-yl}-3-methylidenepyrrolidin-2-one], the IC50 was 23.2 nM in assay [2] and 6150 nM in assay [3].

Turning to `C=C1CCN(c2ccc3ncnc(Nc4ccc(Sc5ccn6ncnc6c5)c(C)c4)c3c2)C1=O` [Compound 13, 1-[4-[(3-methyl-4-[[1,2,4]triazolo[1,5-a]pyridin-7-ylsulfanyl]phenyl)amino]quinazolin-6-yl]-3-methylidenepyrrolidin-2-one], the IC50 in assay [2] was 12.5 nM; in assay [3], 571 nM.
